# Tested on: Galium aparine
# Test: Greenhouse post-emergence herbicidal activity against GALAP
# Type: in vivo
# Settings: application rate 0.5 kg/ha, scale 0 to 100
# Excerpt: The seeds of the test plants were sown separately for each species. For the post-emergence treatment, the test plants were first grown to a height of 3 to 15 cm, depending on the plant habit, and only then treated with the active ingredients which had been suspended or emulsified in water. For this purpose, the test plants were either sown directly and grown in the same containers, or they were first grown separately as seedlings and transplanted into the test containers a few days prior to treatment. Depending on the species, the plants were kept at 10-25° C. or 20-35° C. The test period extended over 2 to 4 weeks. During this time, the plants were tended, and their response to the individual treatments was evaluated. Evaluation was carried out using a scale from 0 to 100. 100 means no emergence of the plants, or complete destruction of at least the aerial moieties, and 0 means no damage, or normal course of growth. A good herbicidal activity is given at values of at least 70 and a very good herbicidal activity is given at values of at least 85. The plants used in the greenhouse experiments belonged to the following species: [table]
structure (smiles),measurement,value
"COCCOc1cccc(C2=C(O)c3nccnc3N(CC(F)F)S2(=O)=O)c1C(F)(F)F [I-6, 1-(2,2-difluoroethyl)-3-[3-(2-methoxyethoxy)-2-(trifluoromethyl)phenyl]-2,2-dioxo-pyrazino[2,3-c]thiazin-4-ol]",herbicidal activity against GALAP,very good (a very good herbicidal activity is given at values of at least 85)

# From patent US8575068B2, “Pyrazinothiazines having herbicidal action” (BASF SE, priority 2010, dated 2013)
